For data set [1], the target named is T1, 19 kDa protein of Oplophorus luciferase (Oplophorus gracilirostris, UniProt Q9GV45).
T1 construct: made in house
Nature of the data set: Substrate specificity, luminescence activity and emission spectra of the 19 kDa protein of Oplophorus luciferase. Format: biochemical, Oplophorus gracilorostris. As to conditions: for Maximum emission wavelength λmax (nm) / Luminescence activity and/or capacity compared to known h-CTZ / Luminescence capacity 10 secs. (%) / Luminescence activity Imax (%): Oplophorus luciferase; for Maximum emission wavelength λmax (nm): 22 to 25° C.; for Luminescence activity and/or capacity compared to known h-CTZ / Quality as luminescence substrate for Oplophorus luciferase: TABLE 2; for Luminescence capacity 10 secs. (%): emission integrated for 10 seconds; for Luminescence capacity 10 secs. (%) / Luminescence activity Imax (%): coelenterazine = 100.0.

Data set [2] concerns the target T2, Renilla luciferase (Renilla reniformis, UniProt P27652).
T2 construct: made in house
T2 sequence (P27652 1-311): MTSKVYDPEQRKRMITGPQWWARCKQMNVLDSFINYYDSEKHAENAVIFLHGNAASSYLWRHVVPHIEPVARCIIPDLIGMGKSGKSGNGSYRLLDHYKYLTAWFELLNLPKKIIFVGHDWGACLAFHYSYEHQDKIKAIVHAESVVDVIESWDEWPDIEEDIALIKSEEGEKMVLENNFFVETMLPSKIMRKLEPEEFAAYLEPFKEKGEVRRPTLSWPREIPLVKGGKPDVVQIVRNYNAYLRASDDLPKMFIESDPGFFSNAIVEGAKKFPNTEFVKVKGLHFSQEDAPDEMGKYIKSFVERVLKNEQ
Nature of the data set: Substrate specificity, luminescence activity and emission spectra of Renilla luciferase. As to conditions: for Maximum emission wavelength λmax (nm) / Luminescence activity Imax (%) / Luminescence capacity 10 secs. (%): Renilla luciferase; for Maximum emission wavelength λmax (nm): 22 to 25° C.; for Luminescence activity Imax (%) / Luminescence capacity 10 secs. (%): coelenterazine = 100.0; for Ability to act as substrate for Renilla luciferase: TABLE 4. Format: biochemical. An excerpt:
Res. Commun. (1997) 233: 349-353, which was provided for use.

Data set [3] addresses T3, recombinant apoaequorin (Aequorea victoria, UniProt P07164). Nature of the data set: Luminescence patterns and half decay time of semi-synthetic aequorins. Format: biochemical. The arrangement: purchased Chisso Corporation. The conditions noted are these: for Half decay time sec.: semi-synthetic aequorin, time to reach half of the maximum luminescence intensity. The protocol:
The dilution was dispensed into a 96-well microplate (Nunc #236108) in 5 μl/well. […] The luminescence patterns for 60 seconds were measured to determine the half decay time of luminescence (time period to reach the half of the maximum luminescence intensity).

Data set [4] addresses T3, recombinant apoaequorin. The data set is described as follows: Calcium standard curve with semi-synthetic aequorins. Format: biochemical. The conditions noted are these: Imax versus 10^-3 M to 10^-8 M calcium. The arrangement: purchased Chisso Corporation. The protocol:
The dilution series was prepared by the serial process above to prepare standard calcium solution of 10^−3 M to 10^−8 M.
The semi-synthetic aequorin obtained was concentrated using Amicon Ultra-4 (manufactured by Millipore, molecular weight cut off, 10.000).
This semi-synthetic aequorin solution (2.5 mg/ml) was diluted with 20 mM Tris-HCl (pH 7.6) containing 0.1% BSA (manufactured by Sigma), 0.01 mM EDTA and 150 mM NaCl.
The calcium standard solution prepared as described above was dispensed into a 96-well microplate (Nunc #236108) in 50 μl/well, and the semi-synthetic aequorin solution diluted was injected in […]. The luminescence intensity was measured for 60 seconds using a luminescence plate reader Centro LB960 (manufactured by Berthold) and expressed in terms of the maximum luminescence intensity (Imax). The luminescence intensity was measured for each semi-synthetic aequorin in the same fashion. Based on the maximum luminescence intensity (Imax) obtained, the calcium standard curve for each semi-synthetic aequorin was prepared.

The target of data set [5] is T3, recombinant apoaequorin. The data set is described as follows: Emission spectra of semi-synthetic aequorins by addition of calcium ions. The conditions noted are these: for Emission spectra of semi-synthetic aequorins compared with known analogs (FIG. 3): compared to h-CTZ and i-CTZ; for Maximum emission wavelength λmax (nm): semi-synthetic aequorin, 22 to 25° C.
Method: In a quartz cell with an optical path length of 10 mm, 1 ml of 50 mM Tris-HCl (pH 7.6) containing 1 mM EDTA and 100 μl (100 μg protein) of a solution of the regenerated semi-synthetic aequorin were charged and they were mixed. Subsequently, 100 μl of 50 mM Tris-HCl (pH 7.6) containing 0.1 ml of 10 mM calcium chloride solution was added to the mixture to trigger the luminescence reaction. The spectra were measured on a spectrofluorimeter (FP-6500, manufactured by JASCO Corporation) with the excitation source turned off. The measurement conditions used were as follows: band width, 20 nm; response, 0.5 second and scan speed, 2000 nm/min at 22 to 25° C.
The test system of data set [6] is Gaussia luciferase. The data set is described as follows: Substrate specificity, luminescence activity and emission spectra of Gaussia luciferase. As to conditions: for Luminescence activity Imax (%) / Luminescence capacity 10 secs. (%): Gaussia luciferase, coelenterazine = 100.0.
Method: The luminescence activity was measured for 10 seconds using a luminometer Luminescencer-PSN AB2200 (manufactured by Atto Co., Ltd.). The luminescence activity was measured 3 times and expressed as the maximum intensity (Imax) of luminescence.
In data set [7] the target is T3, recombinant apoaequorin. The data set is described as follows: Production of semi-synthetic aequorins and measurement of luminescence activity (Imax, luminescence capacity). The conditions noted are these: regeneration 0.5 to 18 hours at 4° C.
Method: In order to confirm the regeneration time and regeneration efficiency from apoaequorin to the semi-synthetic aequorin, the luminescence activity was assayed at the respective points of the regeneration process (at the respective points of 0.5, 1, 1.5, 2, 3 and 18 hours from the start of regeneration).
Specifically, the luminescence activity described above was measured as follows. The luminescence reaction was started by adding 100 μl of 50 mM Tris-HCl (pH 7.6) containing 50 mM calcium chloride solution to 2 μl of a solution of the semi-synthetic aequorin at each regeneration process. The luminescence activity was measured for 10 seconds with a luminometer Luminescencer-PSN AB2200 (manufactured by Atto Co., Ltd.). The measured values were represented as the maximum intensity (Imax) of luminescence. The emission for 60 seconds was integrated, which was made a luminescence capacity.

T1 sequence (Q9GV45 28-196): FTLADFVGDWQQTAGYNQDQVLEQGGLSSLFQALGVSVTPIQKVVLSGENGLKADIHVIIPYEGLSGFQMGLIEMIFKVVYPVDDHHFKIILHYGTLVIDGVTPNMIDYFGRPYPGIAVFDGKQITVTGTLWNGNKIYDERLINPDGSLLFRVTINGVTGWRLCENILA
T3 sequence (P07164 other isoform, or with tags, fused parts or gaps with the stated changes): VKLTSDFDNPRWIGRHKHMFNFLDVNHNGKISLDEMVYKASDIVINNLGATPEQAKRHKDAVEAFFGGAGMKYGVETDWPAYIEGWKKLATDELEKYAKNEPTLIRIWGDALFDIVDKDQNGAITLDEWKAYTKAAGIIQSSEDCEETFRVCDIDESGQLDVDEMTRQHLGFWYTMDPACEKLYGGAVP

For orientation: melting point means the temperature, or range, at which the solid turns liquid. For the molecule `COc1cccc(Cc2nc3c(Cc4ccccc4)[nH]c(-c4ccc(O)cc4)cn-3c2=O)c1` [3meo-CTZ, 3meo-coelenterazine], the melting point was 136 to 140 °C (dec.). Besides, in data set [1], the “Maximum emission wavelength λmax (nm)” value was 455.5 nm, the “Luminescence activity and/or capacity compared to known h-CTZ” value is given as “high luminescence activity and/or luminescence capacity”, the “Luminescence capacity 10 secs. (%)” value turned out to be 204.7% and the “Luminescence activity Imax (%)” value was found to be 189.1%. Further, the “Quality as luminescence substrate for Oplophorus luciferase” value (“Quality … for Oplophorus luciferase” below) in data set [1] is listed as “relatively good luminescence substrates”. In data set [2], the “Maximum emission wavelength λmax (nm)” value was 473.5 nm, the “Luminescence activity Imax (%)” value stood at 26.0%, the “Luminescence capacity 10 secs. (%)” value is 31.6% and the “Ability to act as substrate for Renilla luciferase” value (from here on “Ability to act as substrate”) is reported as “can be substrates for Renilla luciferase”. In addition, the “Half decay time sec.” value in data set [3] was 0.52 s. Further, the “Calcium standard curve with semi-synthetic aequorin (FIG. 4)” value (from here on “Calcium standard curve”) in data set [4] is “calcium standard curves can be prepared”. In data set [5], the “Emission spectra of semi-synthetic aequorins compared with known analogs (FIG. 3)” value is on record as “exhibit different emission spectra from those of known coelenterazine analogs” and the “Maximum emission wavelength λmax (nm)” value is 466.0 nm. For the same molecule, in data set [6], the “Luminescence activity Imax (%)” value came out at 3.8% and the “Luminescence capacity 10 secs. (%)” value is reported as 3.1%. Moreover, the “Ability to act as luminescence substrate for semi-synthetic aequorins (FIG. 1)” value (“Ability to act as luminescence substrate” below) in data set [7] is “can be luminescence substrates for semi-synthetic aequorins”.

Take `COc1ccc(Cc2nc3c(Cc4ccccc4)[nH]c(-c4ccc(O)cc4)cn-3c2=O)cc1` [meo-CTZ, meo-coelenterazine]: the melting point was 137 to 139 °C (dec.). In addition, in data set [1], the “Maximum emission wavelength λmax (nm)” value is reported as 454.5 nm, the “Luminescence capacity 10 secs. (%)” value is reported as 108.6%, the “Luminescence activity Imax (%)” value worked out at 68.1% and the “Quality … for Oplophorus luciferase” value is given as “relatively good luminescence substrates”. Also, in data set [2], the “Maximum emission wavelength λmax (nm)” value amounted to 472.5 nm, the “Luminescence activity Imax (%)” value was found to be 8.0%, the “Luminescence capacity 10 secs. (%)” value is reported as 8.6% and the “Ability to act as substrate” value was “can be substrates for Renilla luciferase”. In addition, in data set [3], the “Half decay time sec.” value was found to be 1.63 s. For the same molecule, the “Calcium standard curve” value in data set [4] is on record as “calcium standard curves can be prepared”. For the same molecule, in data set [5], the “Emission spectra of semi-synthetic aequorins compared with known analogs (FIG. 3)” value is “exhibit different emission spectra from those of known coelenterazine analogs” and the “Maximum emission wavelength λmax (nm)” value is 469.0 nm. In data set [6], the “Luminescence activity Imax (%)” value was 13.6% and the “Luminescence capacity 10 secs. (%)” value is 15.5%. The “Ability to act as luminescence substrate” value in data set [7] is “can be luminescence substrates for semi-synthetic aequorins”.

Take `O=c1c(Cc2ccc(C(F)(F)F)cc2)nc2c(Cc3ccccc3)[nH]c(-c3ccc(O)cc3)cn1-2` [cf3-CTZ, cf3-coelenterazine]: the melting point was 157 to 161 °C (dec.). In data set [1], the “Maximum emission wavelength λmax (nm)” value worked out at 450.5 nm, the “Luminescence capacity 10 secs. (%)” value amounted to 68.2%, the “Luminescence activity Imax (%)” value was found to be 49.5% and the “Quality … for Oplophorus luciferase” value is listed as “relatively good luminescence substrates”. In addition, in data set [2], the “Maximum emission wavelength λmax (nm)” value came out at 474.5 nm, the “Luminescence activity Imax (%)” value was 0.8% and the “Luminescence capacity 10 secs. (%)” value came out at 0.8%. Besides, the “Half decay time of luminescence compared with CTZ” value in data set [3] (semi-synthetic aequorin (FIG. 2, TABLE 1)) is on record as “longer than CTZ”. Further, the “Half decay time sec.” value in data set [3] was found to be 5.95 s. In addition, the “Calcium standard curve” value in data set [4] is “calcium standard curves can be prepared”. In data set [5], the “Emission spectra of semi-synthetic aequorins compared with known analogs (FIG. 3)” value is listed as “exhibit different emission spectra from those of known coelenterazine analogs” and the “Maximum emission wavelength λmax (nm)” value amounted to 473.5 nm. For the same molecule, in data set [6], the “Luminescence activity Imax (%)” value was 0.8% and the “Luminescence capacity 10 secs. (%)” value is 0.7%. Besides, the “Ability to act as luminescence substrate” value in data set [7] was “can be luminescence substrates for semi-synthetic aequorins”.

For the molecule `O=c1c(Cc2cccc(O)c2)nc2c(Cc3ccccc3)[nH]c(-c3ccc(O)cc3)cn1-2` [3iso-CTZ, 3-isocoelenterazine], the melting point was 160 to 162 °C (dec.). Also, in data set [1], the “Maximum emission wavelength λmax (nm)” value is given as 458.0 nm, the “Luminescence activity and/or capacity compared to known h-CTZ” value was “high luminescence activity and/or luminescence capacity”, the “Luminescence capacity 10 secs. (%)” value worked out at 71.8% and the “Luminescence activity Imax (%)” value was found to be 78.2%. Besides, the “Quality … for Oplophorus luciferase” value in data set [1] was “relatively good luminescence substrates”. Also, in data set [2], the “Maximum emission wavelength λmax (nm)” value was found to be 472.0 nm, the “Luminescence activity Imax (%)” value worked out at 25.7%, the “Luminescence capacity 10 secs. (%)” value was 27.5% and the “Ability to act as substrate” value was “can be substrates for Renilla luciferase”. Moreover, in data set [3], the “Half decay time sec.” value was 0.24 s. The “Calcium standard curve” value in data set [4] was “calcium standard curves can be prepared”. Besides, in data set [5], the “Emission spectra of semi-synthetic aequorins compared with known analogs (FIG. 3)” value is on record as “exhibit different emission spectra from those of known coelenterazine analogs” and the “Maximum emission wavelength λmax (nm)” value was found to be 464.0 nm. Moreover, in data set [6], the “Luminescence activity Imax (%)” value stood at 14.3% and the “Luminescence capacity 10 secs. (%)” value came out at 7.4%. Moreover, the “Quality as luminescence substrate for Gaussia luciferase” value in data set [6] (TABLE 3) is on record as “effective luminescence substrates”. The “Ability to act as luminescence substrate” value in data set [7] is listed as “can be luminescence substrates for semi-synthetic aequorins”.

Values taken from patent publication US9645128B2, “Substituted imidazo[1,2-A]pyrazines for measuring a transcription activity” (JNC CORPORATION, priority 2009, dated 2017).
